Format in all cases: biochemical
The target in one assay is T1, Irak4 (Homo sapiens, UniProt Q9NWZ3).
T1 construct: purchased Invitrogen (assay run by Invitrogen)
T1 sequence (Q9NWZ3 1-460): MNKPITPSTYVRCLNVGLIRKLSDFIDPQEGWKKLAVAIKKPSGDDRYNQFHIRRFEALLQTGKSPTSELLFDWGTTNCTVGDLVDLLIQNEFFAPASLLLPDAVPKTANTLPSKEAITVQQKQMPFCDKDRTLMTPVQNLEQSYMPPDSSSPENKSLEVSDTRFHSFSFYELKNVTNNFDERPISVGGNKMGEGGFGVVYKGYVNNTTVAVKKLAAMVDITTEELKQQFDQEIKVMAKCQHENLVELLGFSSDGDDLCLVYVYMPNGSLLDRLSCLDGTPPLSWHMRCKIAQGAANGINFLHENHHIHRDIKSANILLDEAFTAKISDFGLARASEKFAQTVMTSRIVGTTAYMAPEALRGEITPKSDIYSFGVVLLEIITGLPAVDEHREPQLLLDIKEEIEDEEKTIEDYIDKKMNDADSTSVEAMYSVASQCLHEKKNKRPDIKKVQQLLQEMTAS
Nature of the assay: Z'-Lyte FRET kinase assay (Invitrogen), Irak4. To be noted: read-out: IC50, activity toward kinase Irak4. The source says:
(§1) The effect of potential modulators of kinase activity can be measured in a variety of different assays known in the art. For example, direct radiometric, indirect FRET or AlphaScreen assays may be used to assess the level of phosphorylation of a substrate in the presence of test compounds in order to determine the inhibitory affect of the compound on the kinase. Invitrogen (Carlsbad, Calif.) uses a FRET based assay for Btk, EGFR, EphB2, Flt3, lrak4, Kdr, MAP2K1, MAPKAPK2, PDGFRB, PKC theta, Stk6 and Yes. For these assays, compounds of the invention were screened by Invitrogen using Z′-Lyte™ kinase assay.
Briefly, the Invitrogen kinase assay involves use of a specific peptide substrate optimized for each kinase, containing a fluorophore at each end that make up the FRET pair. The peptide sensitivity to proteolytic cleavage depends on phosphorylation of the peptide. Non-phosphorylated peptide is cleaved by a protease while peptide phosphorylated by the kinase is not cleaved. Cleavage of the peptide disrupts the FRET between the donor (coumarin) and acceptor (fluorescein) fluorophores, resulting in an increase in the ratio of donor emission to acceptor emission. The emission ratio of coumarin to fluorescein is used to assess the reaction progress. The extent of phosphorylation is determined from the emission ratio, which is low when the kinase is active (phosphorylated peptide is not cleaved, FRET pair connected) or higher for inhibited kinase (non-phosphorylated peptide is cleaved, FRET pair separated). Thus, the assay involves a kinase reaction in the presence of varying concentrations of a given compound, a development reaction with site specific protease, and detection of the fluorescent emission ratio of coumarin and fluorscein. […] Reaction conditions for each kinase are determined to provide optimal reaction times, incubation temperature, kinase and ATP concentrations. Test samples are made up in 1× kinase buffer (50 mM HEPES pH 7.5, 50 mM MgCl2, 5 mM EGTA, 0.05% BRIJ-35) and compound at desired concentration prepared in DMSO such that the final DMSO is 1%. […] Typically, assay plates are prepared to 10 μl final volume per sample, adding 2.5 μl of compound at 4× the desired concentration in 4% DMSO (serial dilution of compound provides concentration curve), 5 μl of the desired kinase mixed with Z′-LYTE™ peptide substrate (2× in 2× kinase buffer, final peptide at 2 μM), and 2.5 μl of 4×ATP solution. All kinase except for MAP2K1 were at 10 μM ATP in the kinase reaction, while MAP2K1 was at 100 μM. Samples are mixed and the kinase reaction is incubated 1 hour at room temperature, after which 5 μl of development solution is added and mixed. After incubation for another 1 hour at room temperature, 5 μl of stop reagent is added to each sample and mixed. The fluorescence signals are measured to determine the emission ratio.

A further assay concerns the target T2, TEC (Homo sapiens, UniProt P42680).
T2 sequence (P42680 1-631): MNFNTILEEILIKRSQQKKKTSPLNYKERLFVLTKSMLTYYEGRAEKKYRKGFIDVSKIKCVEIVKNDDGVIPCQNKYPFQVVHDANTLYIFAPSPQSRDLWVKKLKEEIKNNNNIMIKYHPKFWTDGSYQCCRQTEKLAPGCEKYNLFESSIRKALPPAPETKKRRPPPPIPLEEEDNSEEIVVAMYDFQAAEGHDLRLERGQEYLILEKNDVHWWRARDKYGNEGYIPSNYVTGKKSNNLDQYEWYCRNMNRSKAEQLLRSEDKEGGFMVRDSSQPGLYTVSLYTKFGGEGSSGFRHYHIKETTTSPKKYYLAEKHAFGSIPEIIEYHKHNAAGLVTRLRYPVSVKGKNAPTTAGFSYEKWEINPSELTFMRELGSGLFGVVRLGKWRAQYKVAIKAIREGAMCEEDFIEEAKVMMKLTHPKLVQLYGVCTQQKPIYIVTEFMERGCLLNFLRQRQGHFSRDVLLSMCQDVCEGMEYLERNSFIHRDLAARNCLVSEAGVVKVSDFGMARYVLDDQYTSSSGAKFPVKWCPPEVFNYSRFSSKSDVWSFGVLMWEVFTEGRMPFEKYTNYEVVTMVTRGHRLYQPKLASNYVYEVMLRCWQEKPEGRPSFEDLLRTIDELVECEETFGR
Briefly: AlphaScreen kinase assay, TEC. To be noted: read-out: IC50, activity toward kinase TEC. The essentials:
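Biotinylated peptide substrate phosphorylation detected by AlphaScreen with phospho-specific antibody acceptor beads and streptavidin donor beads. Compounds tested as 8-point 1:3 serial dilutions from 20 mM DMSO stocks.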
On the technique in general: In Alpha technology, singlet oxygen from a donor bead excites a nearby acceptor bead.

Another assay addresses T3, Pim1 (Homo sapiens, UniProt P11309).
T3 construct: P1215.pET29SRI PIM1 E29-K313 HIS WT; made in house
Nature of the assay: AlphaScreen kinase assay, Pim1. To be noted: read-out: IC50, activity toward kinase Pim1. The source says:
(§2) AlphaScreen assay was used to screen additional kinases. The assay is similarly dependent on the phosphorylation of a peptide substrate. In this assay, an antibody that recognizes phosphorylated substrate is bound to an acceptor bead. The peptide substrate is attached to biotin, which binds to a donor head that contains streptavidin. Thus phosphorylated substrate is bound by antibody and streptavidin, bringing the donor and acceptor heads into close proximity when kinase is not inhibited. The donor produces singlet oxygen which results in emission from the acceptor when they are in close proximity. Conversely, when kinase is inhibited, the donor and acceptor beads are not associated and the emission from the acceptor is reduced.
(§3) AlphaScreen assays were done using compounds dissolved in DMSO to a concentration of 20 mM. The compounds were diluted accordingly to the desired final concentrations in each sample well, using 1:3 serial dilution for a total of 8 concentration points.

The target of the next assay is T4, PDGFRB (Homo sapiens, UniProt P09619).
T4 construct: purchased Invitrogen (Carlsbad, Calif.), screening service
T4 sequence (P09619 33-1106): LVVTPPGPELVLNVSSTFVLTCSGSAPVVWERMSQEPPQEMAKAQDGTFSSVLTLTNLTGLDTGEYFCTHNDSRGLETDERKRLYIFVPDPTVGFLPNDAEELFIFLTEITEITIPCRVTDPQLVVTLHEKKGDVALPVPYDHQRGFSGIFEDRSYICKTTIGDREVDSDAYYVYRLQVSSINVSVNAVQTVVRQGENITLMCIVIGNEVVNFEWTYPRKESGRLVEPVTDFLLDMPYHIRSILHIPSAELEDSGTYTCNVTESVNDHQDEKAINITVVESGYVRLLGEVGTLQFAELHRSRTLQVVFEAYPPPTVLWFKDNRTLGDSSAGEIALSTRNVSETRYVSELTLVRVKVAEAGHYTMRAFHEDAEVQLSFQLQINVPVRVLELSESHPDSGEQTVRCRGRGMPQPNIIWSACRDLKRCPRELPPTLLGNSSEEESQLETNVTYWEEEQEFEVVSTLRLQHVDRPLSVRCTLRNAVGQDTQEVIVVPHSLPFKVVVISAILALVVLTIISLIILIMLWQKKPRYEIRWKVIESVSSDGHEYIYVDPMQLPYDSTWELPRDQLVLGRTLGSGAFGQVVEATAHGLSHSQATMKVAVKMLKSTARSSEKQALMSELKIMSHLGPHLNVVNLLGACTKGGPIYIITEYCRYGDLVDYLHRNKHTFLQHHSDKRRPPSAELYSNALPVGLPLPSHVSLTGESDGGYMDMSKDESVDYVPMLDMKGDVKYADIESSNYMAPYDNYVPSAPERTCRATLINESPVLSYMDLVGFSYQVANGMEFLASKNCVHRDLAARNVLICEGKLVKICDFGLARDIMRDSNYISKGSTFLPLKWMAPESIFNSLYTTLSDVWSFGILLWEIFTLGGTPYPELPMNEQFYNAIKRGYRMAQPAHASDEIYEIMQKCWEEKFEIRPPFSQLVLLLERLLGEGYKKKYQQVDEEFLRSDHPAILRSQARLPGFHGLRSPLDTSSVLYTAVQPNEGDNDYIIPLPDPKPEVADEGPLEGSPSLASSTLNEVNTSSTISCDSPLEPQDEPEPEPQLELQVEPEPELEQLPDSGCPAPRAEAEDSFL
Briefly: Z'-Lyte FRET kinase assay (Invitrogen), PDGFRB. To be noted: read-out: IC50, activity toward kinase PDGFRB.
Text: as §1
Briefly, the Invitrogen kinase assay involves use of a specific peptide substrate optimized for each kinase, containing a fluorophore at each end that make up the FRET pair. The peptide sensitivity to proteolytic cleavage depends on phosphorylation of the peptide. […] The extent of phosphorylation is determined from the emission ratio, which is low when the kinase is active (phosphorylated peptide is not cleaved, FRET pair connected) or higher for inhibited kinase (non-phosphorylated peptide is cleaved, FRET pair separated). […] Reaction conditions for each kinase are determined to provide optimal reaction times, incubation temperature, kinase and ATP concentrations. […] The fluorescence signals are measured to determine the emission ratio.

Another assay deals with EphB4 (Homo sapiens, UniProt P54760). Briefly: AlphaScreen kinase assay, EphB4. To be noted: read-out: IC50, activity toward kinase EphB4.
Chain of EphB4 (P54760 16-987): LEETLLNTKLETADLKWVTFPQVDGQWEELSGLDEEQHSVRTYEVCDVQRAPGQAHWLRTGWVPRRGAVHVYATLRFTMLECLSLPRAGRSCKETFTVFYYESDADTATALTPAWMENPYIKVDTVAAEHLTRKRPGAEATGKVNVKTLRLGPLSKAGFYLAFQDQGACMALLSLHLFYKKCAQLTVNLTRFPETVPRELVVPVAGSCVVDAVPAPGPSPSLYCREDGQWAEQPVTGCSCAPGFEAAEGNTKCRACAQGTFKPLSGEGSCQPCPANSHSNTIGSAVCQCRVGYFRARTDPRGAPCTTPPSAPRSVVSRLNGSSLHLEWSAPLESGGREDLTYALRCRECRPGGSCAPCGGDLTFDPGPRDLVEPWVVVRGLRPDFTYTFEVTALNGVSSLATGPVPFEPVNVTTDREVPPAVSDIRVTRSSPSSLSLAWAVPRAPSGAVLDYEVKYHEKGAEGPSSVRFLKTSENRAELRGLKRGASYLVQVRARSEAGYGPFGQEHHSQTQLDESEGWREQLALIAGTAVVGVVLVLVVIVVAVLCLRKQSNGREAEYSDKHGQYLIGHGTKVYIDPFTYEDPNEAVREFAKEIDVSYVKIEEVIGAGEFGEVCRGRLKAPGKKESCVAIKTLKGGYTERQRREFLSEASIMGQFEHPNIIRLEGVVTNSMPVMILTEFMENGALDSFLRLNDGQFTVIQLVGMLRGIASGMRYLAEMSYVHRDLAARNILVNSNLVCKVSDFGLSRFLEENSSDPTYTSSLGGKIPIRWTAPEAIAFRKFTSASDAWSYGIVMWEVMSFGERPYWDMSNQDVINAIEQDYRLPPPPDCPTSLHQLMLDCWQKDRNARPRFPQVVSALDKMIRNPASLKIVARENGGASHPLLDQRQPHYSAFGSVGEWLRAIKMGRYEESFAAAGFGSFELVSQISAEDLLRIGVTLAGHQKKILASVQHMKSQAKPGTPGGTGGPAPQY
Text: as §2, §3

The next assay addresses EphA2 (Homo sapiens, UniProt P29317). Briefly: AlphaScreen kinase assay, EphA2. To be noted: read-out: IC50, activity toward kinase EphA2.
Text: as §2, §3

These results are taken from patent publication US8415469B2, “Compounds and methods for kinase modulation, and indications therefor” (Plexxikon Inc., priority 2005, dated 2013).

T3 sequence (P11309 with tags, fused parts or gaps): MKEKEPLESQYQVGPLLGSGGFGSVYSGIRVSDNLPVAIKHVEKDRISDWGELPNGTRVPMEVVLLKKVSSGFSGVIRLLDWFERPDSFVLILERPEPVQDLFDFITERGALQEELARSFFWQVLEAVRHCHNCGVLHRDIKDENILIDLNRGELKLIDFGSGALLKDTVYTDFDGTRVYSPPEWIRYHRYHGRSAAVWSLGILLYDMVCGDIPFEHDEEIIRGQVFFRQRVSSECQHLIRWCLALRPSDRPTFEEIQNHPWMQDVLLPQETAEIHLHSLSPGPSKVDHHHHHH
Chain of EphA2 (P29317 24-976): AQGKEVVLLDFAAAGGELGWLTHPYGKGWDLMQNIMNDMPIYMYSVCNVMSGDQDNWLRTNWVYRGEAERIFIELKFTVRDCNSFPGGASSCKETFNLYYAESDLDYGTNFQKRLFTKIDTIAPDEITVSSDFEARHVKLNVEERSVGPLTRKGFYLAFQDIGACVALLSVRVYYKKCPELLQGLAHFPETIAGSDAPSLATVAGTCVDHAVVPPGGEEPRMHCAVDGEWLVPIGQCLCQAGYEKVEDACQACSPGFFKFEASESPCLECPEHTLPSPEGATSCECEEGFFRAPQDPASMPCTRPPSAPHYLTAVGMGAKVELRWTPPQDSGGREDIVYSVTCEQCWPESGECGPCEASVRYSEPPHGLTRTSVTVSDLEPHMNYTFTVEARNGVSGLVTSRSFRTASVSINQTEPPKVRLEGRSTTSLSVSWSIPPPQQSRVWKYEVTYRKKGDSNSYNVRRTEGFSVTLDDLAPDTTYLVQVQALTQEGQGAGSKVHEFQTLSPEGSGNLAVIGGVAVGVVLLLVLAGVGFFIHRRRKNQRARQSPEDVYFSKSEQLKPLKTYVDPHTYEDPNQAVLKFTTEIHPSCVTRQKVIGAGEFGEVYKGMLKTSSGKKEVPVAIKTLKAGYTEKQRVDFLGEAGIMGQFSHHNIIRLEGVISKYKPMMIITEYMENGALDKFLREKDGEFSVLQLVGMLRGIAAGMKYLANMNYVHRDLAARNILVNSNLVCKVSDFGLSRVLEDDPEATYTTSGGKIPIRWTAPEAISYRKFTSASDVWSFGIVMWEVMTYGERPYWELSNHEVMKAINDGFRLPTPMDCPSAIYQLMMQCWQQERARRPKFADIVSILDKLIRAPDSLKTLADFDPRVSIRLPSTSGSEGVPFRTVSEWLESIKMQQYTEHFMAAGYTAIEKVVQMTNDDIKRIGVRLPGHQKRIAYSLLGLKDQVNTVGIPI

On to `Nc1cccc(-c2cnc3[nH]cc(C(=O)c4cc(O)ccc4F)c3c2)c1` [Compound P-0002], for which the IC50 (usually the concentration that gives 50% inhibition) on Irak4 was ≤ 10 µM.

Regarding `Cc1ccccc1C(=O)c1c[nH]c2nccc(-c3ccc(C(N)=O)cc3)c12` [Compound P-0017], at TEC, the IC50 is ≤ 10 µM.

On to `CS(=O)(=O)c1cccc(-c2cnc3[nH]cc(C(O)c4c(F)ccc(F)c4F)c3c2)c1` (stereo not drawn) [Compound P-0020], for which, at Irak4, the concentration for half-maximal inhibition (IC50) was ≤ 10 µM.

`O=C(c1ccc(O)cc1)c1c[nH]c2ncc(-c3cccs3)cc12` [Compound P-0024, (4-Hydroxy-phenyl)-(5-thiophen-2-yl-1H-pyrrolo[2,3-b]pyridin-3-yl)-methanone]: on Pim1, the 50% inhibitory concentration (IC50) was ≤ 10 µM.

Turning to `O=C(O)/C=C/c1cccc(-c2cnc3[nH]cc(C(=O)c4ccccc4F)c3c2)c1` [Compound P-0033], the half-inhibitory concentration (IC50) at TEC was ≤ 10 µM.

As to `Cc1ccccc1C(=O)c1c[nH]c2nccc(-c3cccc(N)c3)c12` [Compound P-0044], the half-maximal inhibitory concentration (IC50) on TEC is ≤ 10 µM.

In the case of `CCCS(=O)(=O)Nc1ccc(F)c(C(=O)c2c[nH]c3ncc(-c4cccnc4)cc23)c1F` [Compound P-0088, Propane-1-sulfonic acid [2,4-difluoro-3-(5-pyridin-3-yl-1H-pyrrolo[2,3-b]pyridine-3-carbonyl)-phenyl]-amide], the 50% inhibitory concentration (IC50) at PDGFRB and at TEC was ≤ 10 µM each time.

In the case of `COc1ccc(F)c(C(=O)c2c[nH]c3ncc(-c4cccnc4)cc23)c1` [Compound P-0090], on Pim1, the half-maximal inhibitory concentration (IC50) was ≤ 10 µM.

In the case of `CN(C)S(=O)(=O)Nc1ccc(F)c(Cc2c[nH]c3ncc(-c4cccnc4)cc23)c1F` [Compound P-0166], at TEC, the IC50 is ≤ 10 µM.

On to `O=C(Nc1ccc(Cc2c[nH]c3ncccc23)cc1)Nc1cccc(C(F)(F)F)c1` [Compound P-0262, 1-[4-(1H-Pyrrolo[2,3-b]pyridin-3-ylmethyl)-phenyl]-3-(3-trifluoromethyl-phenyl)-urea], for which the half-maximal inhibitory concentration (IC50) at PDGFRB is ≤ 10 µM.

`CCCS(=O)(=O)Nc1ccc(F)c(C(=O)c2c[nH]c3ncc(OC)cc23)c1F` [Compound P-0806, Propane-1-sulfonic acid [2,4-difluoro-3-(5-methoxy-1H-pyrrolo[2,3-b]pyridine-3-carbonyl)-phenyl]-amide]: on EphB4, the IC50 was ≤ 10 µM.

In the case of `COc1cccc(C(=O)c2c[nH]c3ncc(-c4cccc(NC(C)=O)c4)cc23)c1F` [Compound P-1336, N-{3-[3-(2-Fluoro-3-methoxy-benzoyl)-1H-pyrrolo[2,3-b]pyridin-5-yl]-phenyl}-acetamide], the 50% inhibitory concentration (IC50) at EphA2 and at EphB4 was ≤ 10 µM each time.

In the case of `OCCOc1ccc(F)c(Cc2c[nH]c3ncc(-c4cccnc4)cc23)c1F` [Compound P-1394, 2-[2,4-Difluoro-3-(5-pyridin-3-yl-1H-pyrrolo[2,3-b]pyridin-3-ylmethyl)-phenoxy]-ethanol], the IC50 on EphA2 was ≤ 10 µM.
